Columns and labels:
Format in all cases: in vivo
[1] = system: barnyardgrass (Echinochloa crus-galli); assay: Test G Pre-Emergence Protocol; conditions: Echinochloa crus-galli, pre-emergence, 312 h, evaluated after 13 days; for pest or weed control at 15.625 g/ha: 15.625 g ai/ha; for pest or weed control at 15.625 g/ha / pest or weed control at 250 g/ha: read-out: Barnyardgrass damage rating (100=total damage to plant; 0=no damage to plant); for pest or weed control at 62.5 g/ha: 62.5 g ai/ha, 100=total damage to plant, 0=no damage to plant, read-out: Barnyardgrass damage rating; for pest or weed control at 250 g/ha: 250 g ai/ha
Procedure, shortened: (§1)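 Test compound in 0.5% Tween 20 acetone/water (50:50) was applied at three rates (15.625, 62.5, 250 g/ha) to soil sown one day earlier. After 13 days plants were scored for injury, where 0 means unaffected and 100 means completely damaged.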

[2] = system: redroot pigweed (Amaranthus retroflexus); assay: Test G Pre-Emergence Protocol; conditions: Amaranthus retroflexus, pre-emergence, 312 h, evaluated after 13 days; for pest or weed control at 15.625 g/ha: 15.625 g ai/ha; for pest or weed control at 15.625 g/ha / pest or weed control at 250 g/ha: read-out: Pigweed, Redroot damage rating (100=total damage to plant; 0=no damage to plant); for pest or weed control at 62.5 g/ha: 62.5 g ai/ha, 100=total damage to plant, 0=no damage to plant, read-out: Pigweed, Redroot damage rating; for pest or weed control at 250 g/ha: 250 g ai/ha
Procedure, shortened: as §1

corn (Zea mays) [3] = assay: Test G Pre-Emergence Protocol; conditions: Zea mays, pre-emergence, 312 h, evaluated after 13 days; for plant injury at 15.625 g/ha: 15.625 g ai/ha; for plant injury at 15.625 g/ha / plant injury at 250 g/ha: read-out: Corn damage rating (100=total damage to plant; 0=no damage to plant); for plant injury at 62.5 g/ha: 62.5 g ai/ha, 100=total damage to plant, 0=no damage to plant, read-out: Corn damage rating; for plant injury at 250 g/ha: 250 g ai/ha
Procedure, shortened: as §1

[4] = system: giant foxtail (Setaria faberi); assay: Test G Pre-Emergence Protocol; conditions: Setaria faberi, pre-emergence, 312 h, evaluated after 13 days; for pest or weed control at 15.625 g/ha: 15.625 g ai/ha; for pest or weed control at 15.625 g/ha / pest or weed control at 250 g/ha: read-out: Foxtail, Giant damage rating (100=total damage to plant; 0=no damage to plant); for pest or weed control at 62.5 g/ha: 62.5 g ai/ha, 100=total damage to plant, 0=no damage to plant, read-out: Foxtail, Giant damage rating; for pest or weed control at 250 g/ha: 250 g ai/ha
Procedure, shortened: as §1

[5] = system: ivy-leaved morning glory (Ipomoea hederacea); assay: Test G Pre-Emergence Protocol; conditions: Ipomoea, pre-emergence, 312 h, evaluated after 13 days; for pest or weed control at 15.625 g/ha: 15.625 g ai/ha; for pest or weed control at 15.625 g/ha / pest or weed control at 250 g/ha: read-out: Morningglory, Ivy-leaved damage rating (100=total damage to plant; 0=no damage to plant); for pest or weed control at 62.5 g/ha: 62.5 g ai/ha, 100=total damage to plant, 0=no damage to plant, read-out: Morningglory, Ivy-leaved damage rating; for pest or weed control at 250 g/ha: 250 g ai/ha
Procedure, shortened: as §1

[6] = system: velvetleaf (Abutilon theophrasti); assay: Test G Pre-Emergence Protocol; conditions: Abutilon theophrasti, pre-emergence, 312 h, evaluated after 13 days; for pest or weed control at 15.625 g/ha: 15.625 g ai/ha; for pest or weed control at 15.625 g/ha / pest or weed control at 250 g/ha: read-out: Velvetleaf damage rating (100=total damage to plant; 0=no damage to plant); for pest or weed control at 62.5 g/ha: 62.5 g ai/ha, 100=total damage to plant, 0=no damage to plant, read-out: Velvetleaf damage rating; for pest or weed control at 250 g/ha: 250 g ai/ha
Procedure, shortened: as §1

[7] = system: barnyardgrass (Echinochloa crus-galli); assay: Test G Post-Emergence Protocol; conditions: Echinochloa crus-galli, post-emergence, 312 h, read-out: Barnyardgrass damage rating; for pest or weed control at 15.625 g/ha: 15.625 g ai/ha, evaluated after 13 days (100=total damage to plant; 0=no damage to plant); for pest or weed control at 62.5 g/ha: 62.5 g ai/ha; for pest or weed control at 62.5 g/ha / pest or weed control at 250 g/ha: evaluated after 13 days, 100=total damage to plant, 0=no damage to plant; for pest or weed control at 250 g/ha: 250 g ai/ha
Procedure, shortened: (§2)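 Eight days post-sowing, plants received a spray of test compound (acetone/water 50:50, 0.5% Tween 20) at 15.625, 62.5 or 250 g/ha. Glasshouse regime thereafter: 24/16 °C, 14 h light, 65% humidity. Assessment after 13 days on a 0–100 damage scale.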

[8] = system: redroot pigweed (Amaranthus retroflexus); assay: Test G Post-Emergence Protocol; conditions: Amaranthus retroflexus, post-emergence, 312 h, read-out: Pigweed, Redroot damage rating; for pest or weed control at 15.625 g/ha: 15.625 g ai/ha, evaluated after 13 days (100=total damage to plant; 0=no damage to plant); for pest or weed control at 62.5 g/ha: 62.5 g ai/ha; for pest or weed control at 62.5 g/ha / pest or weed control at 250 g/ha: evaluated after 13 days, 100=total damage to plant, 0=no damage to plant; for pest or weed control at 250 g/ha: 250 g ai/ha
Procedure, shortened: as §2

corn (Zea mays) [9] = assay: Test G Post-Emergence Protocol; conditions: Zea mays, post-emergence, 312 h, read-out: Corn damage rating; for plant injury at 15.625 g/ha: 15.625 g ai/ha, evaluated after 13 days (100=total damage to plant; 0=no damage to plant); for plant injury at 62.5 g/ha: 62.5 g ai/ha; for plant injury at 62.5 g/ha / plant injury at 250 g/ha: evaluated after 13 days, 100=total damage to plant, 0=no damage to plant; for plant injury at 250 g/ha: 250 g ai/ha
Procedure, shortened: as §2

[10] = system: giant foxtail (Setaria faberi); assay: Test G Post-Emergence Protocol; conditions: Setaria faberi, post-emergence, 312 h, read-out: Foxtail, Giant damage rating; for pest or weed control at 15.625 g/ha: 15.625 g ai/ha, evaluated after 13 days (100=total damage to plant; 0=no damage to plant); for pest or weed control at 62.5 g/ha: 62.5 g ai/ha; for pest or weed control at 62.5 g/ha / pest or weed control at 250 g/ha: evaluated after 13 days, 100=total damage to plant, 0=no damage to plant; for pest or weed control at 250 g/ha: 250 g ai/ha
Procedure, shortened: as §2

[11] = system: ivy-leaved morning glory (Ipomoea hederacea); assay: Test G Post-Emergence Protocol; conditions: Ipomoea, post-emergence, 312 h, read-out: Morningglory, Ivy-leaved damage rating; for pest or weed control at 15.625 g/ha: 15.625 g ai/ha, evaluated after 13 days (100=total damage to plant; 0=no damage to plant); for pest or weed control at 62.5 g/ha: 62.5 g ai/ha; for pest or weed control at 62.5 g/ha / pest or weed control at 250 g/ha: evaluated after 13 days, 100=total damage to plant, 0=no damage to plant; for pest or weed control at 250 g/ha: 250 g ai/ha
Procedure, shortened: as §2

[12] = system: velvetleaf (Abutilon theophrasti); assay: Test G Post-Emergence Protocol; conditions: Abutilon theophrasti, post-emergence, 312 h, read-out: Velvetleaf damage rating; for pest or weed control at 15.625 g/ha: 15.625 g ai/ha, evaluated after 13 days (100=total damage to plant; 0=no damage to plant); for pest or weed control at 62.5 g/ha: 62.5 g ai/ha; for pest or weed control at 62.5 g/ha / pest or weed control at 250 g/ha: evaluated after 13 days, 100=total damage to plant, 0=no damage to plant; for pest or weed control at 250 g/ha: 250 g ai/ha
Procedure, shortened: as §2

Row | Compound | pest or weed control at 15.625 g/ha [1] | pest or weed control at 62.5 g/ha [1] | pest or weed control at 250 g/ha [1] | pest or weed control at 15.625 g/ha [2] | pest or weed control at 62.5 g/ha [2] | pest or weed control at 250 g/ha [2] | plant injury at 15.625 g/ha (corn (Zea mays) [3]) | plant injury at 62.5 g/ha (corn (Zea mays) [3]) | plant injury at 250 g/ha (corn (Zea mays) [3]) | pest or weed control at 15.625 g/ha [4] | pest or weed control at 62.5 g/ha [4] | pest or weed control at 250 g/ha [4] | pest or weed control at 15.625 g/ha [5] | pest or weed control at 62.5 g/ha [5] | pest or weed control at 250 g/ha [5] | pest or weed control at 15.625 g/ha [6] | pest or weed control at 62.5 g/ha [6] | pest or weed control at 250 g/ha [6] | pest or weed control at 15.625 g/ha [7] | pest or weed control at 62.5 g/ha [7] | also measured
1 | CN1C[C@H](c2cccc(C(F)(F)F)c2)[C@@H](C(=O)Nc2ccc3cccnc3n2)C1=O (racemic) [Compound 1676] | 0% | 0% | 0% | 0% | 0% | 0% | 0% | 0% | 0% | 0% | 0% | 0% | 0% | 0% | 0% | 0% | 0% | 0% | 0% | 0% | pest or weed control at 250 g/ha [7]: 0%; pest or weed control at 15.625 g/ha [8]: 0%; pest or weed control at 62.5 g/ha [8]: 0%; pest or weed control at 250 g/ha [8]: 0%; plant injury at 15.625 g/ha (corn (Zea mays) [9]): 0%; plant injury at 62.5 g/ha (corn (Zea mays) [9]): 0%; plant injury at 250 g/ha (corn (Zea mays) [9]): 0%; pest or weed control at 15.625 g/ha [10]: 0%; pest or weed control at 62.5 g/ha [10]: 0%; pest or weed control at 250 g/ha [10]: 0%; pest or weed control at 15.625 g/ha [11]: 0%; pest or weed control at 62.5 g/ha [11]: 0%; pest or weed control at 250 g/ha [11]: 0%; pest or weed control at 15.625 g/ha [12]: 0%; pest or weed control at 62.5 g/ha [12]: 0%; pest or weed control at 250 g/ha [12]: 0%
2 | CN1C[C@H](c2ccc(C(F)(F)F)cc2)[C@@H](C(=O)Nc2cccc(F)c2S(C)(=O)=O)C1=O (racemic) [Compound 1680] | 0% | 20% | 60% | 20% | 20% | 70% | 0% | 0% | 0% | 20% | 60% | 90% | 0% | 0% | 0% | 10% | 10% | 90% | 20% | 20% | pest or weed control at 250 g/ha [7]: 50%; pest or weed control at 15.625 g/ha [8]: 50%; pest or weed control at 62.5 g/ha [8]: 60%; pest or weed control at 250 g/ha [8]: 60%; plant injury at 15.625 g/ha (corn (Zea mays) [9]): 0%; plant injury at 62.5 g/ha (corn (Zea mays) [9]): 0%; plant injury at 250 g/ha (corn (Zea mays) [9]): 0%; pest or weed control at 15.625 g/ha [10]: 30%; pest or weed control at 62.5 g/ha [10]: 80%; pest or weed control at 250 g/ha [10]: 80%; pest or weed control at 15.625 g/ha [11]: 10%; pest or weed control at 62.5 g/ha [11]: 10%; pest or weed control at 250 g/ha [11]: 20%; pest or weed control at 15.625 g/ha [12]: 0%; pest or weed control at 62.5 g/ha [12]: 10%; pest or weed control at 250 g/ha [12]: 0%
3 | COC(=O)c1cc([C@H]2CN(C)C(=O)[C@@H]2C(=O)Nc2ccccc2F)ccc1F (racemic) [Compound 1682] | 0% | 0% | 0% | 0% | 0% | 0% | 0% | 0% | 0% | 0% | 0% | 0% | 0% | 0% | 0% | 0% | 0% | 0% | 0% | 0% | pest or weed control at 250 g/ha [7]: 0%; pest or weed control at 15.625 g/ha [8]: 0%; pest or weed control at 62.5 g/ha [8]: 0%; pest or weed control at 250 g/ha [8]: 0%; plant injury at 15.625 g/ha (corn (Zea mays) [9]): 0%; plant injury at 62.5 g/ha (corn (Zea mays) [9]): 0%; plant injury at 250 g/ha (corn (Zea mays) [9]): 0%; pest or weed control at 15.625 g/ha [10]: 0%; pest or weed control at 62.5 g/ha [10]: 0%; pest or weed control at 15.625 g/ha [11]: 0%; pest or weed control at 62.5 g/ha [11]: 0%; pest or weed control at 250 g/ha [11]: 0%; pest or weed control at 15.625 g/ha [12]: 0%; pest or weed control at 62.5 g/ha [12]: 0%; pest or weed control at 250 g/ha [12]: 0%
